Converted amounts (≈) assume the structure as drawn. Bounds are passed on as bounds.

The conditions of this data set: buffer; pH 7.4; 6.0 h; 150.0 µM.
As usually defined, the kinetic solubility is solubility judged after dilution from a stock solution rather than from solid. On to `O=C(c1cccc(F)c1)N1CCC2(CCN(Cc3cc(C(F)(F)F)cc(C(F)(F)F)c3)CC2)CC1`, for which the solubility (kinetic) came out at 3.62 µg/mL (≈ 7.2 µM). The compound `CC(=O)c1c(C)[nH]c(C(=O)Nc2cccc(S(=O)(=O)Nc3ccc(Br)c(F)c3)c2)c1C` gave a kinetic solubility below 1 µg/mL. Regarding `Fc1cc(Nc2nc(-c3ccncc3)nc3ccccc23)ccc1-c1cncnc1`, the solubility (kinetic) was below 1 µg/mL. In the case of `COc1ccc(-n2nc(C3CCN(C(=O)Cc4ccc(F)cc4)CC3)[nH]c2=O)cc1` it was above 61 µg/mL; in that of `COc1ccccc1-c1nc(NCc2cnc(C)cn2)c2ccccc2n1`, above 53 µg/mL.

Compound `NC(=O)C1CCN(c2ncc(-c3ccc4c(c3)OCO4)s2)CC1` registered a solubility (kinetic) of 5.31 µg/mL (≈ 16 µM). To `Cc1cc(-c2nnc3n2CCCCC3)c(C)n1-c1ccc([N+](=O)[O-])cc1` belongs above 52 µg/mL; to `CN(C)CCOC1=Cc2ccccc2Sc2ccc(Cl)cc21`, 26 µg/mL (≈ 78.4 µM); to `O=c1[nH]c(C2CCN(S(=O)(=O)c3ccc4c(c3)OCCO4)CC2)nc2c1nnn2Cc1c(F)cccc1Cl`, below 1 µg/mL.

`COC(=O)c1ccc2nc(NC3=NC(c4[nH]ncc4Cl)C4=C(CCCC4=O)N3)oc2c1` (stereo not given): the solubility (kinetic) amounted to 1.62 µg/mL (≈ 3.69 µM). Turning to `O=S(=O)(Nc1cnc2ccccc2c1)c1ccc(NCc2ccc(Br)cc2O)cc1`, the kinetic solubility was below 1 µg/mL.

`Cc1ccc(Nc2nc(C)c(NC(=O)c3ccc(C)cc3)c(Nc3ccc(C)cc3)n2)cc1`: the solubility (kinetic) was below 1 µg/mL. As to `CNC1CCC(N(Cc2ccc(OC)c(-c3ccc(C#N)cc3)c2)C(=O)c2sc3ccccc3c2Cl)CC1` (stereo not given), the solubility (kinetic) was 16.7 µg/mL (≈ 30.7 µM). `Fc1cc(-c2nc(Nc3ccc(F)c(F)c3)c3ccccc3n2)ccn1` came in with a solubility (kinetic) below 1 µg/mL. Take `CCCCOc1ccc(CNC(=O)c2cc3n(n2)CCCN(Cc2ccc(C)cc2)C3=O)cc1`: the kinetic solubility is below 1 µg/mL.

`N#Cc1cc(NC(=O)Nc2nnc(-c3ccncc3)s2)ccc1-c1cn[nH]c1` came in with a kinetic solubility below 1 µg/mL. In turn, `CN[C@@H]1C[C@@H](c2ccc(Cl)c(Cl)c2)c2ccccc21` returned a solubility (kinetic) above 43 µg/mL.

As to `O=C1Nc2cc(Cl)ccc2Nc2cscc21`, the kinetic solubility stood at 9.92 µg/mL (≈ 39.6 µM). Compound `COc1ccc(CN2C(=O)[C@@H]3C[C@@H](CN3Cc3cccs3)Oc3ccccc32)cc1` yielded a kinetic solubility of 2.52 µg/mL (≈ 5.99 µM). This solubility kinetic is about 3.9-fold lower than that of the compound before.

The compound `COC[C@@H]1CN(C(=O)c2n[nH]c3ccccc23)C[C@H]1c1nc(C)no1` returned a solubility (kinetic) above 100 µg/mL. `Cn1nnnc1Sc1ncnc2scc(-c3cc4ccccc4o3)c12` returned a solubility (kinetic) below 1 µg/mL.

In turn, `COC(=O)c1ccccc1NC(=O)c1ccccc1OC(F)F` registered a solubility (kinetic) below 1 µg/mL. In the case of `O=C1CCCC2=C1C(c1[nH]ncc1Cl)N=C(Nc1nc3c(Cl)cccc3o1)N2` (stereo not given) it was 1.83 µg/mL (≈ 4.39 µM); in that of `CCOC(=O)C1=C(CN(CC)Cc2ccccc2)NC(=O)NC1c1ccc(OC(C)C)cc1` (stereo not given), below 1 µg/mL; in that of `COc1ccc(CN2CCNc3cc(Nc4ccccc4)ncc3C2)cc1`, 45.4 µg/mL (≈ 126 µM). To `Cc1nnc(N2C(=O)c3oc4ccccc4c(=O)c3C2c2ccc(F)cc2)s1` (stereo not given) belongs below 1 µg/mL; to `O=C(NCCCNc1nc(Nc2cccc(NC(=O)N3CCCC3)c2)ncc1I)c1cccs1`, 14.2 µg/mL (≈ 24 µM). To `O=C(NCCCc1ccccc1)c1cccc(-c2cc(O)c3ncccc3c2)c1` belongs below 1 µg/mL; to `CCN1C(=O)c2ccccc2S(=O)c2ccc(NC(=O)Cc3ccc(F)cc3)cc21` (stereo not given), below 1 µg/mL; to `Oc1cccc(-c2nc(N3CCOCC3)c3oc4ncccc4c3n2)c1`, below 1 µg/mL. On to `Cc1nn(CCc2nc(-c3ccccc3)cs2)c2[nH]c(=O)cc(C(F)(F)F)c12`, for which the kinetic solubility came out at 1.26 µg/mL (≈ 3.12 µM). For the compound `Cc1ccc(S(=O)(=O)Nc2cnccc2C(=O)Nc2nc(-c3ccc4c(c3)CCCC4)cs2)cc1`, the solubility (kinetic) was below 1 µg/mL. Consider `O=S(=O)(Nc1nccs1)c1ccc(Nc2nc(-c3ccc(F)cc3)cs2)cc1`, for which the kinetic solubility turned out to be 2.36 µg/mL (≈ 5.46 µM). In the case of `Cc1cc(C)nc(NC(=S)N2CCN(Cc3cccc(C(F)(F)F)c3)CC2)c1` it was 35.9 µg/mL (≈ 87.8 µM).

Consider `CCCCCCCc1c(C)nc(N2CCOCC2)[nH]c1=O`, for which the solubility (kinetic) stood at 4.18 µg/mL (≈ 14.3 µM). As for `Cc1ccccc1Nc1c(-c2ccccc2O)nc2sccn12`, the solubility (kinetic) is below 1 µg/mL. Compound `O=C(Nc1cccnc1)c1cccs1` gave a kinetic solubility above 30 µg/mL. To `Cc1cccc2c(C(=O)O)cc(-c3cccs3)nc12` belongs above 40 µg/mL. Take `Fc1ccc(Nc2cc(-c3ccccc3)nc(-c3ccncc3)n2)cc1F`: the solubility (kinetic) is below 1 µg/mL. To `Nc1c(-c2ccncc2)cc[nH]c1=O` belongs 11.8 µg/mL (≈ 63.1 µM); to `CCCc1oc2ccc(NS(=O)(=O)c3ccc(OC)cc3)cc2c1C(=O)OCC`, below 1 µg/mL. To `Cc1ccc(-c2cc(C(=O)Nc3ccc(-c4noc(=O)[nH]4)cc3)c3ccccc3n2)cc1C` belongs 1.39 µg/mL (≈ 3.19 µM). In the case of `Oc1ccc(CNc2ccccc2C(F)(F)F)c2cccnc12` it was 1.23 µg/mL (≈ 3.85 µM). In turn, `CC1=C[C@@H](CNCc2cccnc2)[C@H](C(C)C)C[C@H]1Cc1nnc(-c2ccc([N+](=O)[O-])cc2)o1` came in with a solubility (kinetic) above 68 µg/mL.

As for `CCOc1ccc(CCNC(=O)c2cc3sccc3n2CCN2CCOCC2)cc1OCC`, the solubility (kinetic) amounted to 52.4 µg/mL (≈ 111 µM). The compound `Cc1nc(NCc2ccco2)nc2c1C(=O)CC(C)C2` (stereo not given) gave a kinetic solubility above 40 µg/mL. To `NC(=O)C1CCN(c2ncc(Br)cn2)CC1` belongs above 42 µg/mL; to `Cn1cc(Cl)c(C2N=C(Nc3nc4ccccc4o3)NC3=C2C(=O)CCC3)n1` (stereo not given), 36.4 µg/mL (≈ 91.7 µM); to `Fc1ccc(CNc2nc(-c3ccncc3)nc3ccccc23)cc1F`, below 1 µg/mL. To `Cc1cc(SCC(=O)c2ccccc2)n2ncc(-c3ccccc3)c2n1` belongs below 1 µg/mL; to `COc1ccccc1NC(=O)c1oc2ccccc2c1NC(=O)Cc1cccs1`, below 1 µg/mL; to `CC(C)c1ccccc1-c1ncc(F)c(NCC2CCN(c3cccnc3)CC2)n1`, 9.06 µg/mL (≈ 22.3 µM). In the case of `CCOc1ccccc1C(=O)Nc1ccccc1C(=O)Nc1cccc(C(F)(F)F)c1` it was below 1 µg/mL; in that of `O=C(Nc1nc(-c2ccccc2)cs1)c1ccccc1-n1cnnn1`, below 1 µg/mL.

`Clc1ccc(-c2nnc(C3CCCCC3)o2)cc1` yielded a kinetic solubility below 1 µg/mL. `CC(=O)Nc1cccc(Nc2nc3ccccc3n3c(C)nnc23)c1` returned a kinetic solubility below 1 µg/mL. In turn, `Oc1ccc(C(=S)N2CCN(c3cccc(Cl)c3)CC2)cc1` returned a kinetic solubility below 1 µg/mL. Consider `Cc1cccc(N(C)c2nc3ccccc3c3nnc(C)n23)c1`, for which the kinetic solubility was above 45 µg/mL. Compound `O=C1Nc2ccccc2/C1=C\c1ccc(O)cc1` showed a kinetic solubility of 0.999 µg/mL (≈ 4.21 µM). For the compound `CC[S+](=O)([O-])Nc1ccccc1C(=O)Nc1nc(-c2ccccc2)cs1`, the solubility (kinetic) worked out at 40.5 µg/mL (≈ 104 µM). This solubility kinetic lies about 41-fold higher than the previous one. Take `NC(=O)C1CCN(c2ncc(-c3ccc4c(c3)OC(F)(F)O4)s2)CC1`: the kinetic solubility is below 1 µg/mL.

For the compound `N#Cc1ccc(NS(=O)(=O)c2ccc(NC(=O)Cc3ccc(F)c(Cl)c3)cc2)cc1`, the solubility (kinetic) was below 1 µg/mL. In turn, `CCOC(=O)c1ccc2c(c1)c(C(C)=O)c(C)n2-c1ccc(OC)cc1` returned a solubility (kinetic) below 1 µg/mL. In turn, `Fc1cc(Nc2nc(-c3ccncc3)nc3ccccc23)ccc1-c1cccc(C(F)(F)F)c1` yielded a kinetic solubility below 1 µg/mL. To `CC(C)c1ccccc1-c1nc2c(c(NCc3ccc(-c4cccnc4)cc3)n1)CNC2` belongs 40.9 µg/mL (≈ 97 µM). On to `CN(C(=O)OC(C)(C)C)[C@@H](Cc1ccc(O[S+](=O)([O-])c2cccc3cnccc23)cc1)C(=O)N1CCN(C(=O)OCc2ccccc2)CC1`, for which the kinetic solubility was below 1 µg/mL.

With `NC(=O)C1CCN(c2nc(-c3ccccc3)cs2)CC1`, the solubility (kinetic) was above 42 µg/mL. In the case of `Cn1nnnc1Sc1ncnc2scc(Br)c12` it was 1.27 µg/mL (≈ 3.85 µM).

Consider `O=C(O)CNC(=O)c1c(O)c2ccccc2n(Cc2ccccc2)c1=O`, for which the kinetic solubility is above 52 µg/mL. In turn, `OCc1ccc(-c2ccc(-c3ccc(CO)s3)o2)s1` gave a solubility (kinetic) above 43 µg/mL. Compound `O=C(Nc1ccccc1)C1CC(=O)N(c2n[nH]c3cc(Br)ccc23)C1` (stereo not given) showed a solubility (kinetic) below 1 µg/mL. In the case of `CCOC(=O)Nc1cc(-c2ccc(C)c(NS(C)(=O)=O)c2)nn2c(C)nnc12` it was 33.6 µg/mL (≈ 83.2 µM). In the case of `COc1cc(-c2nc(-c3ccccc3)c(-c3cccs3)[nH]2)cc(OC)c1O` it was below 1 µg/mL; in that of `CCCCN1CCC[C@H]1CNC(=O)c1cc(C#N)c2ccccc2c1OC`, 22.2 µg/mL (≈ 60.6 µM); in that of `COc1cccc(CNc2ccc(S(=O)(=O)Nc3nccs3)cc2)c1OC`, 3.6 µg/mL (≈ 8.88 µM). In the case of `CC(C)c1ccc(OCc2nc3c(n2Cc2ccccc2)C(=O)N(CC2CC2)CCN3)cc1` it was below 1 µg/mL; in that of `Cc1cc(-c2nnc3n2CCCCC3)c(C)n1-c1cccnc1`, 32.5 µg/mL (≈ 106 µM). For the compound `Cc1ccc(-c2ccc(CNc3nc(-c4ccccc4C(C)C)ncc3C)cc2)cn1`, the kinetic solubility was below 1 µg/mL. In the case of `COc1ccc(-c2nc3c(c(SCC(=O)Nc4ccc(C(=O)O)cc4)n2)Cc2ccccc2O3)cc1` it was 1.45 µg/mL (≈ 2.9 µM); in that of `COc1cc2c3cc1Oc1c(O)c(OC)cc4c1[C@@H](Cc1ccc(cc1)Oc1cc(ccc1O)C[C@H]3N(C)CC2)N(C)CC4`, above 88 µg/mL; in that of `CCN(CC)C(=O)c1ccc2c(c1)ncn2-c1cccc(C)c1`, above 45 µg/mL.

Regarding `CCN1C(=O)c2ccccc2[S@](=O)c2ccc(C(=O)N[C@H](C)c3ccc(Br)cc3)cc21`, the solubility (kinetic) is below 1 µg/mL. `COc1ccc(OC)c(-n2c3c(cc(-c4nc(-c5ccc(Cl)cc5)cs4)c2=O)C(=O)CC(C)(C)C3)c1`: the solubility (kinetic) was below 1 µg/mL.

Compound `Nc1c(C(=O)Nc2ccc(Cl)cc2)sc2nc3c(cc12)N1CCC3CC1` came in with a kinetic solubility below 1 µg/mL. In the case of `CN(C)c1cccc(-c2cnc(Nc3cccnc3)c3c2CCO3)c1` it was below 1 µg/mL; in that of `CCCCNC(=O)CN1CCN(c2ncc(NC(=O)c3ccc(Cl)cc3)cc2C(=O)O)CC1`, above 70 µg/mL. `C=CC(=O)Nc1cccc(Oc2nc(Nc3ccc(N4CCN(C)CC4)cc3)ncc2Cl)c1` returned a solubility (kinetic) below 1 µg/mL.

Turning to `O=S(=O)(c1ccc(Cl)cc1)c1ccccn1`, the kinetic solubility amounted to 31.8 µg/mL (≈ 125 µM). As to `COc1ccc(NC(=O)c2ccccc2)cc1S(=O)(=O)Nc1ccc(Br)cc1`, the solubility (kinetic) is below 1 µg/mL.

Compound `COc1ccccc1CNS(=O)(=O)c1ccc(-c2cnc(C3CC3)o2)cc1` came in with a solubility (kinetic) of 2.61 µg/mL (≈ 6.79 µM).

The values are drawn from PubChem BioAssay AID1645848.
